Data from article PMC8607748 (Inorganic chemistry, 2020).

Tested on: HL-60 cell line
Assay type: cell-based
Conditions: free ligand

`c1cnccn1` [pyrazine] was tested, and the “activity of the ejected monodentate ligand (cell killing)” value was “inactive”.

With `c1ccncc1` [pyridine] the “activity of the ejected monodentate ligand (cell killing)” value was “inactive”.
